Columns and labels:
goosegrass [1] = test: Test A preemergence; format: in vivo, Eleusine indica; details: 1000 g ai/ha, 0 to 100 scale (0 no effect, 100 complete control), 10 days
From the text: (§1) Seeds of plant species selected from barnyardgrass (Echinochloa crusgalli), blackgrass (Alopecurus myosuroides), corn (Zea mays), foxtail, giant (giant foxtail, Setaria faberi), goosegrass (Eleusine indica), kochia (Bassia scoparia), oat, wild (wild oat, Avena fatua), pigweed, palmer (palmer amaranth, palmer pigweed, Amaranthus palmeri), Pigweed, Redroot (redroot pigweed, Amaranthus retroflexus), ragweed (common ragweed, Ambrosia artemisiifolia), ryegrass, Italian (italian ryegrass, Lolium multiflorum), soybean (Glycine max), and wheat (Triticum aestivum) were planted into a blend of loam soil and sand and treated preemergence with a directed soil spray using test chemicals formulated in a non-phytotoxic solvent mixture which included a surfactant. At the same time, plants selected from these crops and weed species and also galium (catchweed bedstraw, Galium aparine) and horseweed (Erigeron canadensis) were planted in pots containing the same blend of loam soil and sand and treated with postemergence applications of test chemicals formulated in the same manner. Plants ranged in height from 2 to 10 cm and were in the one- to two-leaf stage for the postemergence treatment. Treated plants and untreated controls were maintained in a greenhouse for 10 days, after which time all treated plants were compared to untreated controls and visually evaluated for injury. Plant response ratings, summarized in Table A, are based on a 0 to 100 scale where 0 is no effect and 100 is complete control. A dash (-) response means no test result.

ryegrass, Italian [2] = test: Test A preemergence; format: in vivo, Lolium multiflorum; details: 1000 g ai/ha, 0 to 100 scale (0 no effect, 100 complete control), 10 days
From the text: as §1

ragweed [3] = test: Test A postemergence; format: in vivo, Ambrosia artemisiifolia; details: 1000 g ai/ha, Postemergence; 0 to 100 scale
From the text: as §1

horseweed = test: Test A postemergence; format: in vivo, Erigeron canadensis; details: 1000 g ai/ha, Postemergence; 0 to 100 scale
From the text: as §1

pigweed, palmer [4] = test: Test A preemergence; format: in vivo, Amaranthus palmeri; details: 1000 g ai/ha, 0 to 100 scale (0 no effect, 100 complete control), 10 days
From the text: as §1

galium = test: Test A postemergence; format: in vivo, Galium aparine; details: 1000 g ai/ha, Postemergence; 0 to 100 scale
From the text: as §1

ragweed [5] = test: Test A preemergence; format: in vivo, Ambrosia artemisiifolia; details: 1000 g ai/ha, 0 to 100 scale (0 no effect, 100 complete control), 10 days
From the text: as §1

blackgrass [6] = test: Test A postemergence; format: in vivo, Alopecurus myosuroides; details: 1000 g ai/ha, Postemergence; 0 to 100 scale
From the text: as §1

pigweed, palmer [7] = test: Test A postemergence; format: in vivo, Amaranthus palmeri; details: 1000 g ai/ha, Postemergence; 0 to 100 scale
From the text: as §1

goosegrass [8] = test: Test A postemergence; format: in vivo, Eleusine indica; details: 1000 g ai/ha, Postemergence; 0 to 100 scale
From the text: as §1

kochia [9] = test: Test A preemergence; format: in vivo, Bassia scoparia; details: 1000 g ai/ha, 0 to 100 scale (0 no effect, 100 complete control), 10 days
From the text: as §1

blackgrass [10] = test: Test A preemergence; format: in vivo, Alopecurus myosuroides; details: 1000 g ai/ha, 0 to 100 scale (0 no effect, 100 complete control), 10 days
From the text: as §1

foxtail, giant [11] = test: Test A preemergence; format: in vivo, Setaria faberi; details: 1000 g ai/ha, 0 to 100 scale (0 no effect, 100 complete control), 10 days
From the text: as §1

kochia [12] = test: Test A postemergence; format: in vivo, Bassia scoparia; details: 1000 g ai/ha, Postemergence; 0 to 100 scale
From the text: as §1

foxtail, giant [13] = test: Test A postemergence; format: in vivo, Setaria faberi; details: 1000 g ai/ha, Postemergence; 0 to 100 scale
From the text: as §1

ryegrass, Italian [14] = test: Test A postemergence; format: in vivo, Lolium multiflorum; details: 1000 g ai/ha, Postemergence; 0 to 100 scale
From the text: as §1

## Cc1csc(-c2cccc(C(=O)N3C[C@H](C)Oc4c(Cl)cccc43)c2)n1 [Compound 124]
Goosegrass [1]
  Plant response rating, Goosegrass: 60
ryegrass, Italian [2]
  Plant response rating, Ryegrass, Italian: 60
Ragweed [3]
  Plant response rating, Ragweed: 0
horseweed
  Plant response rating, Horseweed: 0
pigweed, palmer [4]
  Plant response rating, Pigweed, Palmer: 30
galium
  Plant response rating, Galium: 30
Ragweed [5]
  Plant response rating, Ragweed: 0
Blackgrass [6]
  Plant response rating, Blackgrass: 0
pigweed, palmer [7]
  Plant response rating, Pigweed, Palmer: 60
Goosegrass [8]
  Plant response rating, Goosegrass: 0
Kochia [9]
  Plant response rating, Kochia: 0
Blackgrass [10]
  Plant response rating, Blackgrass: 0
foxtail, giant [11]
  Plant response rating, Foxtail, Giant: 80
Kochia [12]
  Plant response rating, Kochia: 30
foxtail, giant [13]
  Plant response rating, Foxtail, Giant: 40
ryegrass, Italian [14]
  Plant response rating, Ryegrass, Italian: 0

## C[C@H]1CN(C(=O)c2cccc(-n3cncn3)c2)c2cc([N+](=O)[O-])ccc2O1 [Compound 49]
Goosegrass [1]
  Plant response rating, Goosegrass: 30
ryegrass, Italian [2]
  Plant response rating, Ryegrass, Italian: 30
Ragweed [3]
  Plant response rating, Ragweed: 30
horseweed
  Plant response rating, Horseweed: 0
pigweed, palmer [4]
  Plant response rating, Pigweed, Palmer: 0
galium
  Plant response rating, Galium: 30
Ragweed [5]
  Plant response rating, Ragweed: 0
Blackgrass [6]
  Plant response rating, Blackgrass: 0
pigweed, palmer [7]
  Plant response rating, Pigweed, Palmer: 0
Goosegrass [8]
  Plant response rating, Goosegrass: 10
Kochia [9]
  Plant response rating, Kochia: 0
Blackgrass [10]
  Plant response rating, Blackgrass: 0
foxtail, giant [11]
  Plant response rating, Foxtail, Giant: 20
Kochia [12]
  Plant response rating, Kochia: 10
foxtail, giant [13]
  Plant response rating, Foxtail, Giant: 10
ryegrass, Italian [14]
  Plant response rating, Ryegrass, Italian: 30

— patent US20260262643A1, “HERBICIDAL BENZOXAZINES” (FMC CORPORATION, priority 2022, published 2026)
